Measured values: patent US5070210A, “Novel ketenimines as intermediates for insecticides” (ICI Americas Inc., priority 1990, dated 1991)

Key:
Assay type in all cases: in vivo
[1] = tested on: Maize weevil [Sitophilus Zeamais (Motschulsky)]; test: Maize weevil insecticidal test; conditions: adult weevils, percent in solution; 48 hours
Experimental: The compounds in Tables 1 and 2 above were tested for insecticidal activity using the following testing procedures. LC50 values, based on the results of these tests and calculated according to dosage-mortality curves, are expressed in Table 3.
Maize weevil [Sitophilus Zeamais (Motschulsky)]:
Test compounds were diluted in a 50:50 acetone:water solution. Four corn seeds [Zea mays (L.)] which had been immersed in test solutions for 2-3 seconds and allowed to dry were placed in containers together with 10 adult weevils. The containers were covered and kept at a temperature of about 25° C. Mortality was recorded after 48 hours. Test concentrations ranged from 0.01% down to that at which 50% mortalilty occurred. The LC50 values are expressed below in Table 3 under the heading "MW" in terms of percent of the test compound in solution.

[2] = tested on: Cabbage Looper [Trichoplusia ni (Hubner)]; test: Cabbage looper insecticidal test; conditions: second-instar larvae, percent in solution; 3-5 days
In short: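 Squash cotyledons dipped 2-3 s in compound in 50-50 acetone-water, dried, then infested with 5 second-instar larvae and held at high humidity. Mortality scored after 3-5 days at concentrations from 0.1% downward. LC50 from dosage-mortality curves, expressed as percent compound in solution.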

[3] = tested on: Tobacco Budworm [Heliothis virescens (Fabricius)] eggs; test: Tobacco budworm egg test; conditions: 2-day old eggs, percent in solution
In short: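 Paper-towel patches of 2-day-old eggs dipped in acetone solutions of compound (0.1% downward), held on larval rearing medium at 78° F. Mortality scored once all control eggs had hatched and larvae were feeding; LC50 from dosage-mortality curves, expressed as percent compound in solution.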

[4] = tested on: Housefly [Musca domestica]; test: Housefly insecticidal test; conditions: μg per 25 female flies; mortality after 48 hours
In short: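 LC50, as μg compound per 25 female flies, comes from dosage-mortality curves with doses from 100 μg downward. Residues were made by evaporating acetone plus 0.01% peanut oil in dishes, onto which 1-2-day-old females were caged; deaths were counted after 48 hours.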

Structure (SMILES)	LC50, MW [1] [%]	LC50, CL [2] [%]	LC50, TBW, E (TBW-E) [3] [%]	LC50, HF [4] [µg]
Cc1ccc(Oc2cccc(COC(=Nc3ccc(C(C)(C)C)cc3)C(C)C)c2)cc1 [Compound 344]	> 0.01	0.024	> 0.1	> 100
Cc1cccc(N=C(OCc2cccc(Oc3ccc(F)cc3)c2)C(C)C)c1 [Compound 405]	> 0.01	> 0.1	> 0.1	< 100
CC(C)C(=Nc1ccc(OC(F)(F)C(F)Cl)cc1)OCc1ccc(F)c(Oc2ccccc2)c1 (stereo not shown) [Compound 419]	> 0.01	> 0.1	> 0.1	> 100
Cc1ccc(N=C(OCc2ccc(F)c(Oc3ccc(Cl)cc3)c2)C(C)C)cc1Cl [Compound 404]	> 0.01	> 0.1	0.025	< 100
CC(C)C(=Nc1ccc(Br)c(Br)c1)OCc1ccc(F)c(Oc2ccc(F)cc2)c1 [Compound 383]	> 0.01	0.00029	0.038	< 100
CC(C)C(=Nc1ccc(F)c(Br)c1)OCc1cccc(Oc2ccc(Cl)cc2)c1 [Compound 398]	> 0.01	< 0.1	< 0.1	< 100
Cc1cccc(N=C(OCc2ccc(F)c(Oc3ccc(Cl)cc3)c2)C(C)C)c1 [Compound 401]	> 0.01	0.0017	0.04	< 100
CC(C)C(=Nc1ccc(F)c(I)c1)OCc1cccc(Oc2ccc(F)cc2)c1 [Compound 449]	0.0075	0.0001	0.025	13
CCc1ccc(N=C(OCc2cccc(Oc3ccc(F)cc3)c2)C(C)C)cc1Cl [Compound 438]	> 0.01	0.0009	< 0.1	> 100
Cc1cc(N=C(OCc2ccc(F)c(Oc3ccccc3)c2)C(C)C)ccc1F [Compound 400]	> 0.01	0.0007	0.025	< 100
CC(C)C(=Nc1cccc(C(F)(F)F)c1)OC(C)c1cccc(Oc2ccccc2)c1 (stereo not shown) [Compound 459]	> 0.01	0.008	0.1	> 100
CC(C)C(=Nc1ccc(Cl)c(F)c1)OCc1ccc(F)c(Oc2ccc(F)cc2)c1 [Compound 441]	0.006	0.000025	0.016	< 100
CC(C)C(=Nc1ccc(F)c(Br)c1)OCc1ccc(F)c(Oc2ccccc2)c1 [Compound 299]	> 0.01	0.0005	0.017	8
CC(C)C(=Nc1ccc(OCC(F)(F)F)cc1)OCc1ccc(F)c(Oc2ccccc2)c1 [Compound 422]	> 0.01	0.00075	0.05	< 100
CC(C)C(=Nc1ccc(OCC(F)(F)F)cc1)OCc1cccc(Oc2ccccc2)c1 [Compound 423]	> 0.01	0.002	> 0.1	> 100
COCc1c(F)c(F)c(COC(=Nc2ccc(F)c(Cl)c2)C(C)C)c(F)c1F [Compound 505]	> 0.01	0.0024	0.09	14

Structure (SMILES)	LC50, MW [1] [%]	LC50, CL [2] [%]	LC50, TBW, E (TBW-E) [3] [%]	LC50, HF [4] [µg]
CC(C)C(=Nc1ccc(OCC(F)(F)F)c(Cl)c1)OCc1cccc(Oc2ccccc2)c1 [Compound 425]	> 0.01	0.00075	> 0.1	> 100
COc1ccc(N=C(OCc2ccc(F)c(Oc3ccccc3)c2)C(C)C)cc1Cl [Compound 409]	> 0.01	0.0017	0.025	< 100
CC(C)C(=Nc1ccc(F)c(Cl)c1)OCc1cccc(Oc2c(F)c(F)c(F)c(F)c2F)c1 [Compound 460]	> 0.01	0.02	> 0.1	> 100
CC(C)(C)C(=Nc1cccc(C(F)(F)F)c1)OCc1cccc(Oc2ccccc2)c1 [Compound 88]	> 0.01	0.018	> 0.1	> 100
Fc1ccc(Oc2cccc(COC(=Nc3cccc(C(F)(F)F)c3)C3CC3)c2)cc1 [Compound 294]	> 0.01	0.017	> 0.1	> 100
CC(C)C(=Nc1cccc(F)c1)OCc1ccc(F)c(Oc2ccc(F)cc2)c1 [Compound 342]	> 0.01	0.0008	0.04	4.1
CC(C)C(=Nc1ccc(OCC(F)(F)F)c(Cl)c1)OCc1cccc(Oc2ccc(Cl)cc2)c1 [Compound 421]	> 0.01	0.002	< 0.1	> 100
CC(C)C(=Nc1ccc(Cl)c(C(F)(F)F)c1)OCc1cccc(Oc2ccccc2)n1 [Compound 555]	> 0.01	0.002	> 0.1	< 100
CC(C)C(=Nc1cc(F)c(Cl)cc1Cl)OCc1ccc(F)c(Oc2ccc(F)cc2)c1 [Compound 292]	> 0.01	0.00075	0.05	41
CC(C)C(=Nc1ccc(OCC(F)(F)F)c(Cl)c1)OCc1ccc(F)c(Oc2ccccc2)c1 [Compound 424]	> 0.01	0.00038	0.035	> 100
CC(C)C(=Nc1ccc(F)c(Br)c1)OCc1ccc(F)c(Oc2ccc(Cl)cc2)c1 [Compound 379]	> 0.01	0.00075	0.02	< 100
CC(C)C(=Nc1ccc(I)c(Cl)c1)OCc1cccc(Oc2ccc(Cl)cc2)n1 [Compound 471]	> 0.01	0.00018	0.018	< 100
CC(Br)C(=Nc1ccc2c(c1)OCO2)OCc1cccc(Oc2ccccc2)c1 (stereo not shown) [Compound 306]	> 0.01	0.005	0.1	> 100
C=C(C)C(=Nc1ccc(F)c(Cl)c1)OCc1cccc(Oc2ccccc2)c1 [Compound 417]	> 0.01	0.0008	0.04	< 100
CC(C)C(=Nc1ccc(C#N)cc1)OCc1ccc(F)c(Oc2ccc(F)cc2)c1 [Compound 394]	> 0.01	0.00025	0.05	< 100
